Source: US20260041725A1, “MYCONOSIDE-RICH EXTRACT FROM IN VITRO SYSTEMS OF PLANTS BELONGING TO GENERA HABERLEA AND RAMONDA, METHOD OF PREPARATION, AND USE AS CHEMO-, RADIO- AND UV PROTECTOR” (INNOVA BM Ltd., priority 2022, published 2026)

Key:
[1] = system: human lymphocyte cultures; experiment: Cytokinesis-block micronucleus test, irradiated and non-irradiated blood (Example 7); format: cell-based; conditions: non-irradiated blood cells; FIG. 7A
Source text: The anticlastogenic potential of Extract 1 and Extract 2 (obtained according to Example 1), as well as of the clinically proven cytoprotective agent amifostine, was investigated individually and in combinations on human lymphocyte cultures in vitro before and after exposure to ionizing radiation (gamma rays) by micronucleus scoring tests. […] A compound is considered mutagenic when it increases the spontaneous frequency of the micronuclei (MN) in polychromatic erythrocytes or in lymphocytes. […] The cytokinesis-block micronucleus assay of Fenech, M. and A. Morley (1985) was used to analyze MN in binuclear lymphocytes from peripheral blood. The number of MN found in the examined 500 binuclear cells from cell cultures prepared with irradiated and non-irradiated peripheral venous blood taken from 5 healthy volunteers was investigated. The blood of the donors was exposed to 2.0 Gy 60Co gamma radiation (y-rays) in a water bath (37° C.) with a Rokus-M irradiator at 24 Gy/min. Exposure was calculated depending on the geometrical parameters of the irradiator, the distance and power of the source.

[2] = DPPH radical scavenging activity by direct EPR spectroscopy, with radioprotector amifostine (Example 6); conditions: 0.5% aqueous solution, FIG. 5
Source text: It has been proven that free radicals generated after exposure to gamma radiation are highly reactive and can trigger chain reactions leading to significant biological damage and increased oxidative stress. […] They are substances and compounds of synthetic or natural origin that allow the body's cells to withstand higher levels of radiation or can quickly eliminate the harmful genotoxic effects of such radiation and maintain human genome stability. […] (FIG. 5).

[3] = system: human lymphocyte cultures; experiment: Induced chromosomal aberrations test, before and after gamma irradiation (Example 8); format: cell-based; conditions: non-irradiated blood cells; FIG. 8A
Source text: The clastogenic activity and anticlastogenic potential of Extract 1 and Extract 2 (obtained according to Example 1), as well as of the clinically proven cytoprotective agent amifostine, were investigated alone and in combination on human lymphocyte cultures in vitro before and after exposure to ionizing radiation (y-rays) through tests for detection of induced chromosomal aberrations.
The study design included a total of 6 groups, including the untreated control. In each group, 5 blood donors were examined, and in each donor 100 metaphase plates obtained from lymphocyte cells from peripheral venous blood were analyzed for chromosomal aberrations, or a total of 500 metaphase plates for each group.
Cell cultures were prepared using the method of Evans H. J. for short-term culturing of peripheral blood lymphocytes and obtaining metaphase plates for chromosome aberration reading. Chromosome microscope slides were observed on an Olympus BX41 microscope at the most convenient magnifications—screening preparations at magnification 63 and detailed analysis of chromosomes for aberrations at magnification 1000. A minimum of 100 metaphases from each sample were analyzed. […] Exposure was calculated depending on the geometrical parameters of the irradiator, the distance and power of the source.

[4] = DPPH radical scavenging activity before and after 2.0 Gy gamma irradiation (Example 6); conditions: 0.25% aqueous solution, FIG. 6
Procedure: The effect of combinations of the investigated extracts with the commercial radioprotector amifostine was also studied before and after gamma irradiation (FIG. 6). 2.0 Gy 60Co gamma radiation (y-rays) was performed in a water bath (37° C.) with a Rokus-M irradiator at 24 Gy/min.

[5] = DPPH radical scavenging activity by direct EPR spectroscopy, with UV protector Oxybenzone (Example 5); conditions: for percentage of trapped DPPH radicals: 0.5% aqueous solution, FIG. 4
Procedure: The radical scavenging activities (% inhibition) of aqueous solutions (0.5%) of Extract 1, Extract 2 (obtained according to Example 1), Oxybenzone, and 1:1 extract: Oxybenzon combinations (w/w) was evaluated by a DPPH test. A comparative DPPH analysis was carried out and the antioxidant potential of Extract 1, Extract 2, a commercial UV protector (Oxybenzone), as well as combinations of Extract 1 with Oxybenzone and of Extract 2 with Oxybenzone was compared. […] The method of direct EPR spectroscopy was used (Yordanov and Christova, 1997; Karamalakova, 2014). To measure DPPH radical scavenging capacity, 98% ethanolic solution of DPPH (80 mM, stock) was used, room temperature (22° C.), and Extract 1, Extract 2, Oxybenzone and the relevant combinations (at a concentration of 0.5%) were mixed and homogenized. The mixture was incubated in the dark, and examined for DPPH-H/R radicals generated in the system at the 1st, 5th and 10th minute. DPPH solution was used as an internal standard for the EPR signal (FIG. 4).

[6] = UVA and UVB light transmission (T %) of dilutions of Extract 2 (Example 4); format: physicochemical; conditions: FIG. 3
Procedure: UVA and UVB light transmission (T %) was studied for different dilutions of Extract 2 (obtained according to Example 1 herein) with myconoside concentrations of 0.11 mg/ml, 0.055 mg/ml, 0.011 mg/ml, 0 0.0055 mg/ml, and 0.00275 mg/ml, as presented in FIG. 3.

In the case of `NCCCNCCSP(=O)(O)O` [amifostine], the “clastogenic activity (number of MN in 500 binuclear cells)” value [1] is reported as “lack of clastogenic activity”, the “percentage of trapped DPPH radicals” value ([2]; 1st minute) is reported as 5.1% and the “percentage of trapped DPPH radicals” value ([2]; 5th minute) is reported as 4.5%. The “percentage of trapped DPPH radicals” value ([2]; 10th minute) was 3.9%, the “clastogenic activity (frequency of aberrant cells)” value [3] was “no clastogenic activity” and the “percentage of trapped DPPH radicals” value ([4]; after 2.0 Gy gamma irradiation) was 5.9%. For the same compound, the “percentage of trapped DPPH radicals” value ([4]; before gamma irradiation) was 2.5%.

With `COc1ccc(C(=O)c2ccccc2)c(O)c1` [Oxybenzone] the “percentage of trapped DPPH radicals” value ([5]; 1st minute) was 4.7%, the “percentage of trapped DPPH radicals” value ([5]; 5th minute) was 3.2% and the “percentage of trapped DPPH radicals” value ([5]; 10th minute) was 2.2%. For the same compound, the “antioxidant activity (in words)” value ([5]; 0.5%, Oxybenzone alone vs 1:1 combinations with extracts, p<0.001) was “very low antioxidant activity”.

With `O=C(CCc1ccc(O)c(O)c1)O[C@H]1[C@H](O[C@H]2OC[C@](O)(CO)[C@H]2O)[C@@H](O)[C@H](OCCc2ccc(O)c(O)c2)O[C@@H]1CO[C@@H]1OC[C@](O)(CO)[C@H]1O` [myconoside, [(2R,3R,4R,5R,6R)-4-[(2R,3R,4R)-3,4-dihydroxy-4-(hydroxymethyl)oxolan-2-yl]oxy-2-[[(2R,3R,4R)-3,4-dihydroxy-4-(hydroxymethyl)oxolan-2-yl]oxymethyl]-6-[2-(3,4-dihydroxyphenyl)ethoxy]-5-hydroxyoxan-3-yl]3-(3,4-dihydroxyphenyl)propanoate] the “protection (UV radiation transmission)” value ([6]; maximum concentration of 0.11 mg/ml of myconoside (dilutions of Extract 2 of Example 1)) was 100% and the “inhibition of UV radiation transmission” value ([6]; minimum concentration of 0.011 mg/ml of myconoside (dilutions of Extract 2 of Example 1)) was 50%.
